According to patent publication US6737383B1, “Herbicidal oxadiazolidines” (priority 1999, dated 2004):

Tests used:
velvetleaf = assay: Test B pre/postemergence velvetleaf; format: in vivo, Abutilon theophrasti
Summary of the method: (§1)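 Herbicidal effect was estimated by eye on a ten-point control scale after plants spent twelve to sixteen days in a greenhouse following soil or foliar treatment. Foliar sprays targeted plants at one to four leaves; all doses were formulated in a non-phytotoxic solvent with surfactant.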

corn = assay: Test B pre/postemergence corn; format: in vivo, Zea mays
Summary of the method: as §1

sugar beet = assay: Test B pre/postemergence sugar beet; format: in vivo, Beta vulgaris
Summary of the method: as §1

wild oat = assay: Test B pre/postemergence wild oat; format: in vivo, Avena fatua
Summary of the method: as §1

pigweed = assay: Test B pre/postemergence pigweed; format: in vivo, Amaranthus retroflexus
Summary of the method: as §1

surinam grass = assay: Test B pre/postemergence surinam grass; format: in vivo, Brachiaria decumbens
Summary of the method: as §1

bedstraw = assay: Test B pre/postemergence bedstraw; format: in vivo, Galium aparine
Summary of the method: as §1

soybean = assay: Test B pre/postemergence soybean; format: in vivo, Glycine max
Summary of the method: as §1

blackgrass = assay: Test B pre/postemergence blackgrass; format: in vivo, Alopecurus myosuroides
Summary of the method: as §1

purple nutsedge = assay: Test B pre/postemergence purple nutsedge; format: in vivo, Cyperus rotundus
Summary of the method: as §1

cocklebur = assay: Test B pre/postemergence cocklebur; format: in vivo, Xanthium strumarium
Summary of the method: as §1

morningglory = assay: Test B pre/postemergence morningglory; format: in vivo, Ipomoea hederacea
Summary of the method: as §1

wheat = assay: Test B pre/postemergence wheat; format: in vivo, Triticum aestivum
Summary of the method: as §1

rape = assay: Test B pre/postemergence rape; format: in vivo, Brassica napus
Summary of the method: as §1

crabgrass = assay: Test B pre/postemergence crabgrass; format: in vivo, Digitaria sanguinalis
Summary of the method: as §1

giant foxtail = assay: Test B pre/postemergence giant foxtail; format: in vivo, Setaria faberii
Summary of the method: as §1

[1] = Postemergence, Rate 62 g/ha, scale of 0 to 10, 0 is no effect, 10 is complete control
[2] = Postemergence, Rate 125 g/ha, scale 0 to 10, 0 is no effect, 10 is complete control
[3] = Postemergence, Rate 500 g/ha, scale 0 to 10, 0 is no effect, 10 is complete control
[4] = Preemergence, Rate 62 g/ha, scale 0 to 10 (0 no effect, 10 complete control)
[5] = Preemergence, Rate 125 g/ha, scale 0 to 10, 0 is no effect, 10 is complete control
[6] = Preemergence, Rate 500 g/ha, scale of 0 to 10 where 0 is no effect and 10 is complete control
[7] = Rate 250 g/ha, Postemergence, scale of 0 to 10 where 0 is no effect and 10 is complete control

Question: Which results are given for CC(C)N(C(=O)n1oc(=O)n(C(C)C(=O)c2ccccc2)c1=O)c1ccc(Cl)cc1 (stereo not drawn) [Compound 541]?
Answer: Velvetleaf plant response rating (velvetleaf; [1]): 0; Velvetleaf plant response rating (velvetleaf; [2]): 0; Plant response rating, Velvetleaf (velvetleaf; [3]): 0; Velvetleaf plant response rating (velvetleaf; [4]): 0; Velvetleaf plant response rating (velvetleaf; [5]): 0; Velvetleaf plant response rating (0 to 10 scale) (velvetleaf; Preemergence, Rate 250 g/ha): 0; Velvetleaf plant response rating (velvetleaf; [6]): 0; Plant response rating, Velvetleaf (velvetleaf; [7]): 0; Corn plant response rating (corn; [1]): 0; Corn plant response rating (corn; [2]): 0; Plant response rating, Corn (corn; [3]): 0; Corn plant response rating (corn; [4]): 0; Corn plant response rating (corn; [5]): 0; Corn plant response rating (0 to 10 scale) (corn; Preemergence, Rate 250 g/ha): 0; Corn plant response rating (corn; [6]): 0; Plant response rating, Corn (corn; [7]): 0; Sugarbeets plant response rating (sugar beet; [1]): 0; Sugarbeets plant response rating (sugar beet; [2]): 0; Plant response rating, Sugarbeets (sugar beet; [3]): 4; Sugarbeets plant response rating (sugar beet; [4]): 0; Sugarbeets plant response rating (sugar beet; [5]): 0; Sugarbeets plant response rating (0 to 10 scale) (sugar beet; Preemergence, Rate 250 g/ha): 0; Sugarbeets plant response rating (sugar beet; [6]): 2; Plant response rating, Sugarbeets (sugar beet; [7]): 0; Wild oats plant response rating (wild oat; [1]): 0; Wild oats plant response rating (wild oat; [2]): 0; Plant response rating, Wild oats (wild oat; [3]): 2; Wild oats plant response rating (wild oat; [4]): 0; Wild oats plant response rating (wild oat; [5]): 0; Wild oats plant response rating (0 to 10 scale) (wild oat; Preemergence, Rate 250 g/ha): 5; Wild oats plant response rating (wild oat; [6]): 5; Plant response rating, Wild oats (wild oat; [7]): 0; Redroot pigweed plant response rating (pigweed; [1]): 0; Redroot pigweed plant response rating (pigweed; [2]): 0; Plant response rating, Redroot pigweed (pigweed; [3]): 3; Redroot pigweed plant response rating (pigweed; [4]): 0; Redroot pigweed plant response rating (pigweed; [5]): 0; Redroot pigweed plant response rating (0 to 10 scale) (pigweed; Preemergence, Rate 250 g/ha): 0; Redroot pigweed plant response rating (pigweed; [6]): 0; Plant response rating, Redroot pigweed (pigweed; [7]): 0; B. signalgrass plant response rating (surinam grass; [1]): 0; B. signalgrass plant response rating (surinam grass; [2]): 0; Plant response rating, B. signalgrass (surinam grass; [3]): 2; B. signalgrass plant response rating (surinam grass; [4]): 0; B. signalgrass plant response rating (surinam grass; [5]): 0; B. signalgrass plant response rating (0 to 10 scale, 0 is no effect, 10 is complete control) (surinam grass; Preemergence, Rate 250 g/ha): 0; B. signalgrass plant response rating (surinam grass; [6]): 5; Plant response rating, B. signalgrass (surinam grass; [7]): 0; Bedstraw plant response rating (bedstraw; [1]): 0; Plant response rating, Bedstraw (bedstraw; [3]): 5; Bedstraw plant response rating (bedstraw; [4]): 0; Bedstraw plant response rating (bedstraw; [5]): 0; Bedstraw plant response rating (0 to 10 scale) (bedstraw; Preemergence, Rate 250 g/ha): 0; Bedstraw plant response rating (bedstraw; [6]): 3; Plant response rating, Bedstraw (bedstraw; [7]): 5; Soybean plant response rating (soybean; [1]): 0; Soybean plant response rating (soybean; [2]): 0; Plant response rating, Soybean (soybean; [3]): 2; Soybean plant response rating (soybean; [4]): 0; Soybean plant response rating (soybean; [5]): 0; Soybean plant response rating (0 to 10 scale) (soybean; Preemergence, Rate 250 g/ha): 0; Soybean plant response rating (soybean; [6]): 0; Plant response rating, Soybean (soybean; [7]): 1; Blackgrass plant response rating (blackgrass; [1]): 0; Blackgrass plant response rating (blackgrass; [2]): 0; Plant response rating, Blackgrass (blackgrass; [3]): 0; Blackgrass plant response rating (blackgrass; [4]): 0; Blackgrass plant response rating (blackgrass; [5]): 0; Blackgrass plant response rating (0 to 10 scale) (blackgrass; Preemergence, Rate 250 g/ha): 0; Blackgrass plant response rating (blackgrass; [6]): 2; Plant response rating, Blackgrass (blackgrass; [7]): 0; Nutsedge plant response rating (purple nutsedge; [1]): 0; Nutsedge plant response rating (purple nutsedge; [2]): 0; Plant response rating, Nutsedge (purple nutsedge; [3]): 0; Nutsedge plant response rating (purple nutsedge; [5]): 0; Nutsedge plant response rating (0 to 10 scale) (purple nutsedge; Preemergence, Rate 250 g/ha): 0; Nutsedge plant response rating (purple nutsedge; [6]): 0; Plant response rating, Nutsedge (purple nutsedge; [7]): 0; Cocklebur plant response rating (cocklebur; [1]): 0; Cocklebur plant response rating (cocklebur; [2]): 0; Plant response rating, Cocklebur (cocklebur; [3]): 5; Cocklebur plant response rating (cocklebur; [5]): 0; Plant response rating, Cocklebur (cocklebur; [7]): 5; Morningglory plant response rating (morningglory; [1]): 0; Morningglory plant response rating (morningglory; [2]): 1; Plant response rating, Morningglory (morningglory; [3]): 3; Morningglory plant response rating (morningglory; [4]): 0; Morningglory plant response rating (morningglory; [5]): 0; Morningglory plant response rating (0 to 10 scale) (morningglory; Preemergence, Rate 250 g/ha): 0; Morningglory plant response rating (morningglory; [6]): 0; Plant response rating, Morningglory (morningglory; [7]): 1; Wheat plant response rating (wheat; [1]): 0; Wheat plant response rating (wheat; [2]): 0; Plant response rating, Wheat (wheat; [3]): 0; Wheat plant response rating (wheat; [4]): 0; Wheat plant response rating (wheat; [5]): 0; Wheat plant response rating (0 to 10 scale) (wheat; Preemergence, Rate 250 g/ha): 3; Wheat plant response rating (wheat; [6]): 3; Plant response rating, Wheat (wheat; [7]): 0; Rape plant response rating (rape; [1]): 0; Rape plant response rating (rape; [2]): 0; Plant response rating, Rape (rape; [3]): 3; Rape plant response rating (rape; [4]): 0; Rape plant response rating (rape; [5]): 0; Rape plant response rating (0 to 10 scale) (rape; Preemergence, Rate 250 g/ha): 0; Rape plant response rating (rape; [6]): 0; Plant response rating, Rape (rape; [7]): 3; Crabgrass plant response rating (crabgrass; [1]): 0; Crabgrass plant response rating (crabgrass; [2]): 0; Plant response rating, Crabgrass (crabgrass; [3]): 3; Crabgrass plant response rating (crabgrass; [4]): 5; Crabgrass plant response rating (crabgrass; [5]): 5; Crabgrass plant response rating (0 to 10 scale) (crabgrass; Preemergence, Rate 250 g/ha): 10; Crabgrass plant response rating (crabgrass; [6]): 10; Plant response rating, Crabgrass (crabgrass; [7]): 0; Giant foxtail plant response rating (giant foxtail; [1]): 0; Giant foxtail plant response rating (giant foxtail; [2]): 0; Plant response rating, Giant foxtail (giant foxtail; [3]): 2; Giant foxtail plant response rating (giant foxtail; [4]): 7; Giant foxtail plant response rating (giant foxtail; [5]): 10; Giant foxtail plant response rating (0 to 10 scale) (giant foxtail; Preemergence, Rate 250 g/ha): 10; Giant foxtail plant response rating (giant foxtail; [6]): 10; Plant response rating, Giant foxtail (giant foxtail; [7]): 0
